These are literature values, as cited in US8734864B2, “Methods for increasing human growth hormone levels” (Quality IP Holdings, LLC, priority 2012, dated 2014).

The test system of one data set is hGH secretion. As to conditions: for Increase in hGH (in words): other amino acids, literature.
For data set [1] the following is noted: subcutaneous injection of 0.06 IU, GH deficient subjects.

As to `N=C(N)NCCC[C@H](N)C(=O)O` [arginine], in the data set on hGH secretion (30 g, males), the “Elevation of serum hGH levels” value is listed as 8.6 fold. In addition, the “Increase of hGH levels” value with hGH secretion (intravenous infusion of 183 mg/kg body weight, females) was more than 20 fold.
Take `N[C@@H](Cc1ccccc1)C(=O)O` [phenylalanine]: the “Increase in hGH (in words)” value in the data set on hGH secretion is reported as “marked increases in hGH”.
On to `N[C@@H](Cc1c[nH]cn1)C(=O)O` [histidine], for which the “Increase in hGH (in words)” value in the data set with hGH secretion was “marked increases in hGH”.
Regarding “HGH: human growth hormone given by subcutaneous injection to GH deficient subjects (literature)”, in data set [1], the “Mean levels of GH reached” value is 0.4 ng/mL.
Consider `CSCC[C@H](N)C(=O)O` [methionine], for which, in the data set on hGH secretion, the “Increase in hGH (in words)” value was “marked increases in hGH”.
With `NCCC[C@H](N)C(=O)O` [ornithine], the “Increase in hGH (in words)” value in the data set on hGH secretion was “marked increases in hGH”.
Turning to `NCCCC[C@H](N)C(=O)O` [lysine], the “Increase in hGH (in words)” value in the data set on hGH secretion is “marked increases in hGH”.
